Data reported in article PMC7049619 (Acta Pharmaceutica Sinica. B, 2019).
Several values for one entry are separate records, joined by “and”; a condition that tells them apart may be missing. Equal values may be shown once.

How the values were obtained:
[1] = Cytotoxicity in C8166 cells by MTT method; conditions: human
[2] = tested on: HIV-1IIIB; assay: Anti-HIV-1 activity; type: cell-based; conditions: for SI (selectivity index): ratio CC50/EC50, C8166 cells, Table 1; for times more potent than NVP: C8166, Table 1 EC50
[3] = tested on: HIV-1_74V; assay: Anti-HIV-1 activity against resistant strain HIV-1_74V in C8166 cells; type: cell-based; conditions: Human immunodeficiency virus 1, C8166
[4] = tested on: HIV-1RF/V82F/184V; assay: Anti-HIV-1 activity against resistant strain HIV-1RF/V82F/184V in C8166 cells; type: cell-based; conditions: Human immunodeficiency virus 1, C8166
[5] = tested on: HIV-1Ba-L; assay: Anti-HIV-1Ba-L activity, luciferase gene expression assay in TZM-bl cells; type: cell-based; conditions: Human immunodeficiency virus 1, TZM-b1
[6] = tested on: HIV-1 laboratory adapted strains and primary isolated strains; type: cell-based; conditions: HIV-1IIIB, HIV-1Ba-L and HIV-1TC-1; Table 2 EC50
[7] = tested on: HIV-1A17 (K103N + Y181C); assay: Anti-HIV-1 activity against resistant strain HIV-1A17; type: cell-based; conditions: Human immunodeficiency virus 1, C8166
[8] = tested on: HIV-1WAN; type: cell-based; conditions: Human immunodeficiency virus 1, PBMC
[9] = in vivo; conditions: male, Sprague-Dawley, rat, plasma
[10] = Cytotoxicity in TZM-bl cells; type: cell-based; conditions: human
[11] = Cytotoxicity in PBMC; type: cell-based; conditions: human, PBMC (peripheral blood mononuclear cells)
[12] = tested on: HIV-1TC-1; type: cell-based; conditions: Human immunodeficiency virus 1, PBMC, HIV-1TC-1, PBMC; Table 2
[13] = molecular target: recombinant HIV-1 RT (Human immunodeficiency virus type 1 group M subtype B, UniProt P04585); assay: Enzymatic recombinant HIV-1 RT activity assay; type: biochemical
[14] = tested on: K103N/Y181C double mutant HIV-1 strain; conditions: cited from earlier work

SMILES	CC50 at 3 days [1] [nM]	SI (selectivity index) [2]	EC50 [3] [nM]	EC50 [4] [nM]	EC50 [5] [nM]	EC50 [7] [nM]	EC50 [8] [nM]	CC50 at 3 days [10] [nM]	CC50 [11] [nM]	EC50 [12] [nM]	other results
CCc1c(CC2CCCCC2)nc(SCc2cc(-c3ccc(C)cc3)[nH]n2)[nH]c1=O [I-07, 6-(Cyclohexylmethyl)-5-ethyl-2-(((5-(p-tolyl)-1H-pyrazol-3-yl)methyl)thio)pyrimidin-4(3H)-one]	91400 ± 1900	1748	–	–	–	–	–	–	–	–	–
O=c1cc(CC2CCCCC2)nc(SCc2cc(-c3ccccc3)[nH]n2)[nH]1 [I-38, 6-(Cyclohexylmethyl)-2-(((5-phenyl-1H-pyrazol-3-yl)methyl)thio)pyrimidin-4(3H)-one]	79100 ± 5340	16	–	–	–	–	–	–	–	–	–
Cc1cn([C@H]2C[C@H](N=[N+]=[N-])[C@@H](CO)O2)c(=O)[nH]c1=O [AZT, zidovudine, reference compound]	> 200000	>22,472	–	–	–	–	–	–	–	–	–
CCc1c(CC2CCCCC2)nc(SCc2cc(-c3cccc(C)c3)[nH]n2)[nH]c1=O [I-02, 6-(Cyclohexylmethyl)-5-ethyl-2-(((5-(m-tolyl)-1H-pyrazol-3-yl)methyl)thio)pyrimidin-4(3H)-one]	82800 ± 2200	1120	–	–	–	–	–	–	–	–	–
CCc1c(CC2CCCCC2)nc(SCc2n[nH]c(-c3ccc(Cl)c(Cl)c3)c2Cl)[nH]c1=O [I-32, 2-(((4-Chloro-5-(3,4-dichlorophenyl)-1H-pyrazol-3-yl)methyl)thio)-6-(cyclohexylmethyl)-5-ethyl-pyrimidin-4(3H)-one]	190000 ± 13900	544	–	–	–	–	–	–	–	–	–
CCc1c(CC2CCCCC2)nc(SCc2cc(-c3ccc(O)cc3)[nH]n2)[nH]c1=O [I-11, 6-(Cyclohexylmethyl)-5-ethyl-2-(((5-(4-hydroxyphenyl)-1H-pyrazol-3-yl)methyl)thio)pyrimidin-4(3H)-one]	–	–	46.2 ± 23.7	54.1 ± 23.1	48.5 ± 6.8	2770 ± 820	56.6 ± 2.4	77100 ± 3680	46800 ± 5200	14.5 ± 0.1	times more potent than NVP [6]: 5–14 times; AUC(0-inf) ([9]; iv, 1 mg/kg): 2630 ng·h/mL; AUC(0-t) ([9]; iv, 1 mg/kg): 2600 ng·h/mL; Cmax ([9]; iv, 1 mg/kg): 7180 ng/mL; MRT inf ([9]; iv, 1 mg/kg): 33.2 min; Vd ([9]; iv, 1 mg/kg): 0.213 L/kg; clearance ([9]; iv, 1 mg/kg): 6.4 mL/min/kg; half-life ([9]; iv, 1 mg/kg): 72 min; bioavailability ([9]; oral, 5 mg/kg): 10.4%; AUC(0-inf) ([9]; po, 5 mg/kg): 1370 ng·h/mL; AUC(0-t) ([9]; po, 5 mg/kg): 1300 ng·h/mL; CL/F ([9]; po, 5 mg/kg): 63.8 mL/min/kg; Cmax ([9]; po, 5 mg/kg): 1.54 µM and 654 ng/mL; MRT ([9]; po, 5 mg/kg): 33.2 min; Tmax ([9]; po, 5 mg/kg): 30 min; half-life ([9]; po, 5 mg/kg): 150 min; times more potent than NVP [2]: about 10 times; IC50 [13]: 1090 ± 590 nM
CCc1c(CC2CCCCC2)nc(SCc2cc(-c3ccccc3)[nH]n2)[nH]c1=O [I-01, 6-(Cyclohexylmethyl)-5-ethyl-2-(((5-phenyl-1H-pyrazol-3-yl)methyl)thio)pyrimidin-4(3H)-one]	–	–	–	–	–	–	–	–	–	–	times more potent than NVP [2]: about 10 times
Cc1cc(C#N)cc(C)c1Oc1nc(Nc2ccc(C#N)cc2)nc(N)c1Br [ETR, etravirine, reference compound]	27500 ± 5690	19,628	–	–	–	–	–	–	–	–	EC50 [14]: 50 nM
Cc1ccnc2c1NC(=O)c1cccnc1N2C1CC1 [NVP, nevirapine, reference compound]	–	–	76.8 ± 19.3	61.4 ± 8.5	166 ± 46.5	20200 ± 3100	77 ± 19.3	> 200000	> 200000	199 ± 48.7	–
CCc1c(CC2CCCCC2)nc(SCc2cc(-c3ccc(SC)cc3)[nH]n2)[nH]c1=O [I-12, 6-(Cyclohexylmethyl)-5-ethyl-2-(((5-(4-(methylthio)phenyl)-1H-pyrazol-3-yl)methyl)thio)pyrimidin-4(3H)-one]	–	–	88.1 ± 17.9	219 ± 46.5	193 ± 26.1	4870 ± 2710	165	> 200000	> 200000	55.4 ± 11.2	IC50 [13]: 2270 ± 120 nM
